Results taken from patent publication US9944645B2, “Imidazotriazines and imidazopyrimidines as kinase inhibitors” (Incyte Holdings Corporation, priority 2006, dated 2018).

Each molecule was assayed against c-Met kinase (h-Met; histidine-tagged c-Met catalytic domain fusion protein) (Homo sapiens (Human), UniProt P08581) (assay: In Vitro c-Met Kinase Enzyme Assays). Settings: phosphorylation of poly Glu-Tyr, 5 μM ATP, 25 minutes at 30° C.
Type: biochemical
How it was run: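 His-tagged c-Met catalytic domain reacted 25 min at 30° C, within the linear initial-rate range. Phosphotyrosine detected by ELISA with peroxidase-labeled anti-phospho-tyrosine antibody and TMB, OD read at 450 nm (540 nm correction); IC50 from curve fit.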

Sequence of c-Met kinase (h-Met; histidine-tagged c-Met catalytic domain fusion protein) (P08581 1078-1345): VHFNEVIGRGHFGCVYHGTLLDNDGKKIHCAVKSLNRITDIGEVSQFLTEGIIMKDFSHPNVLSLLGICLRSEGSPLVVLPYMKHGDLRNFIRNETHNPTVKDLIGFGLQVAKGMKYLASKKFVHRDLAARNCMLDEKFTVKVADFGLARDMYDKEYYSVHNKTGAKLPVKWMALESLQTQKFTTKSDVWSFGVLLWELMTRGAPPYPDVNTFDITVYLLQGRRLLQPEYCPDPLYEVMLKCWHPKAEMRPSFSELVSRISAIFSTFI

Compound	IC50
CC(COc1ccccn1)NC(=O)C1(c2ccc(-c3cnc4ncc(C5(c6ccc7ncccc7c6)CC5)n4c3)cc2)CC1 (stereo not shown) [Example 189, N-[1-Methyl-2-(pyridin-2-yloxy)ethyl]-1-{4-[3-(1-quinolin-6-ylcyclopropyl)imidazo[1,2-a]pyrimidin-6-yl]phenyl}cyclopropanecarboxamide]	< 500 nM
CN(C)C(=O)C(O)c1ccc(-c2cnc3ncc(C4(c5ccc6ncccc6c5)CC4)n3c2)cc1F (stereo not shown) [Example 191, 2-{2-fluoro-4-[3-(1-quinolin-6-ylcyclopropyl)imidazo[1,2-a]pyrimidin-6-yl]phenyl}-2-hydroxy-N,N-dimethylacetamide]	< 500 nM
CCNC(=O)Nc1cccc(Cc2cnc3ncc(-c4ccc(Br)c(F)c4)nn23)c1 [Example 192, N-(3-[2-(4-Bromo-3-fluorophenyl)imidazo[1,2-b][1,2,4]triazin-7-yl]methylphenyl)-N′-ethylurea]	< 500 nM
CC(C)(C)[C@H](NC(=O)c1ccc(-c2cnc3ncc(C4(c5ccc6ncccc6c5)CC4)n3c2)cc1F)C(=O)N1CCC1 [Example 198, N-[(1S)-1-(Azetidin-1-ylcarbonyl)-2,2-dimethylpropyl]-2-fluoro-4-[3-(1-quinolin-6-ylcyclopropyl)imidazo[1,2-a]pyrimidin-6-yl]benzamide]	< 500 nM
CC(NC(=O)c1ccc(-c2cnc3ncc(C4(c5ccc6ncccc6c5)CC4)n3c2)cc1F)C(=O)N(C)C (stereo not shown) [Example 199, N-[2-(Dimethylamino)-1-methyl-2-oxoethyl]-2-fluoro-4-[3-(1-quinolin-6-ylcyclopropyl)imidazo[1,2-a]pyrimidin-6-yl]benzamide]	< 500 nM
CC(NC(=O)c1ccc(-c2cnc3ncc(C4(c5ccc6ncccc6c5)CC4)n3c2)cc1F)C(=O)N1CCC1 (stereo not shown) [Example 200, N-(2-Azetidin-1-yl-1-methyl-2-oxoethyl)-2-fluoro-4-[3-(1-quinolin-6-ylcyclopropyl)imidazo[1,2-a]pyrimidin-6-yl]benzamide]	< 500 nM
COC(=O)N1CCC(CC#N)(n2cc(-c3cnc4ncc(Cc5ccc6ncccc6c5)n4n3)cn2)CC1 [Example 203, Methyl 4-(cyanomethyl)-4-{4-[7-(quinolin-6-ylmethyl)imidazo[1,2-b][1,2,4]triazin-2-yl]-1H-pyrazol-1-yl}piperidine-1-carboxylate]	< 500 nM
CC(=O)N1CCC(CC#N)(n2cc(-c3cnc4ncc(Cc5ccc6ncccc6c5)n4n3)cn2)CC1 [Example 205, (1-Acetyl-4-{4-[7-(quinolin-6-ylmethyl)imidazo[1,2-b][1,2,4]triazin-2-yl]-1H-pyrazol-1-yl}piperidin-4-yl)acetonitrile]	< 500 nM

Now from value to molecule:

IC50	Compound
< 500 nM	CNC(=O)C(O)c1ccc(-c2cnc3ncc(C4(c5ccc6ncccc6c5)CC4)n3c2)cc1F (stereo not shown) [Example 190, 2-{2-Fluoro-4-[3-(1-quinolin-6-ylcyclopropyl)imidazo[1,2-a]pyrimidin-6-yl]phenyl}-2-hydroxy-N-methylacetamide]
< 500 nM	Nc1nc2ncc(C3(c4ccc5ncccc5c4)CC3)n2nc1-c1cccc(Cl)c1Cl [Example 193, 2-(2,3-Dichlorophenyl)-7-(1-quinolin-6-ylcyclopropyl)imidazo[1,2-b][1,2,4]triazin-3-amine]
< 500 nM	CNC(=O)c1ccc(-c2cnc3ncc(C4(c5ccc6ncccc6c5)CC4)n3c2)c(F)c1F [Example 194, 2,3-Difluoro-N-methyl-4-[3-(1-quinolin-6-ylcyclopropyl)imidazo[1,2-a]pyrimidin-6-yl]benzamide]
< 500 nM	CNC(=O)c1c(F)cc(-c2cnc3ncc(C4(c5ccc6ncccc6c5)CC4)n3c2)cc1F [Example 195, 6-Difluoro-N-methyl-4-[3-(1-quinolin-6-ylcyclopropyl)imidazo[1,2-a]pyrimidin-6-yl]benzamide]
< 500 nM	CNS(=O)(=O)c1ccc(-c2cnc3ncc(C4(c5ccc6ncccc6c5)CC4)n3c2)cc1F [Example 196, 2-Fluoro-N-methyl-4-[3-(1-quinolin-6-ylcyclopropyl)imidazo[1,2-a]pyrimidin-6-yl]benzenesulfonamide]
< 500 nM	CN(C)C(=O)Cn1ccc(-c2cnc3ncc(C4(c5ccc6ncccc6c5)CC4)n3c2)n1 [Example 197, N,N-Dimethyl-2-{3-[3-(1-quinolin-6-ylcyclopropyl)imidazo[1,2-a]pyrimidin-6-yl]-1H-pyrazol-1-yl}acetamide]
< 500 nM	O=C(NCC1(O)CC1)c1ccc(-c2cnc3ncc(Cc4ccc5ncccc5c4)n3n2)cc1F [Example 202, 2-Fluoro-N-[(1-hydroxycyclopropyl)methyl]-4-[7-(quinolin-6-ylmethyl)imidazo[1,2-b][1,2,4]triazin-2-yl]benzamide]
< 500 nM	CCOC(=O)N1CCC(CC#N)(n2cc(-c3cnc4ncc(Cc5ccc6ncccc6c5)n4n3)cn2)CC1 [Example 204, Ethyl 4-(cyanomethyl)-4-{4-[7-(quinolin-6-ylmethyl)imidazo[1,2-b][1,2,4]triazin-2-yl]-1H-pyrazol-1-yl}piperidine-1-carboxylate]
